In ChEMBL document CHEMBL1155686, “Luteolin, a compound with adenosine A(1) receptor-binding activity, and chromone and dihydronaphthalenone constituents from Senna siamea” (J Nat Prod, 2000):

What follows are compounds tested against T1, Adenosine receptor A1 (Rattus norvegicus, UniProt P25099) (assay: Displacement of [3H]DPCPX from adenosine A1 receptor in rat brain cortex membrane in presence of 0.5 mM GTP).
T1 sequence (P25099 whole entry): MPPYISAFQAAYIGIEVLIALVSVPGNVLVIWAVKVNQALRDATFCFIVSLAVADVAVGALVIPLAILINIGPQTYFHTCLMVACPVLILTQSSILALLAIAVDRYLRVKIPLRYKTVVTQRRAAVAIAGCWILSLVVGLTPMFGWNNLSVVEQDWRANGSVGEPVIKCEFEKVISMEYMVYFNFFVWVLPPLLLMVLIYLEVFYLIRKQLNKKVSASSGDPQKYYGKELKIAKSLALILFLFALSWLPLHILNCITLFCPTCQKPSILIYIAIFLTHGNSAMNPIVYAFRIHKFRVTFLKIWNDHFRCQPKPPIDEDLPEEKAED
Assay type: cell membranes

How did the Ki turn out when O=c1cc(-c2ccc(O)c(O)c2)oc2cc(O)cc(O)c12 [LUTEOLIN] was run?
Its Ki is 1550 nM.

What follows are compounds tested against T1, Adenosine receptor A1 (assay: Displacement of [3H]DPCPX from adenosine A1 receptor in rat brain cortex membrane).
Assay type: cell membranes

How did the Ki turn out when CC(=O)Cc1cc(O)cc2oc(C)cc(=O)c12 was run?
Its Ki is over 50 µM.

How did the Ki turn out when O=c1cc(-c2ccc(O)c(O)c2)oc2cc(O)cc(O)c12 [LUTEOLIN] was run?
The Ki was 1.66 µM.

With CC(=O)[C@@H]1c2cc(O)cc(O)c2C(=O)C[C@@]1(C)O (relative stereo) as the compound, how does the Ki read?
The Ki was over 50 µM.

Which Ki does the source give for CC(=O)[C@@H]1c2cc(O)cc(O)c2C(=O)C[C@]1(C)O (relative stereo) here?
Its Ki is over 50 µM.

How did the Ki turn out when CC(=O)Cc1cc(O)cc2oc(CO)cc(=O)c12 was run?
The Ki was over 50 µM.
